Measurements: ChEMBL document CHEMBL4507305, “Data for DCP probe TP-024” (2021)

What was measured:
[1] = target: Ribosomal protein S6 kinase alpha-4 (Homo sapiens) (UniProt O75676); details: Compound concentration 1000.0 nM
[2] = target: Ephrin type-A receptor 4 (Homo sapiens) (UniProt P54764); details: Compound concentration 1000.0 nM
[3] = target: Tyrosine-protein kinase FRK (Homo sapiens) (UniProt P42685); details: Compound concentration 1000.0 nM
[4] = target: D(1B) dopamine receptor (Homo sapiens) (UniProt P21918); details: Compound concentration 10.0 uM
[5] = target: Aurora kinase B (Homo sapiens) (UniProt Q96GD4); details: Compound concentration 1000.0 nM
Aurora kinase B (Homo sapiens), sequence (Q96GD4 whole entry): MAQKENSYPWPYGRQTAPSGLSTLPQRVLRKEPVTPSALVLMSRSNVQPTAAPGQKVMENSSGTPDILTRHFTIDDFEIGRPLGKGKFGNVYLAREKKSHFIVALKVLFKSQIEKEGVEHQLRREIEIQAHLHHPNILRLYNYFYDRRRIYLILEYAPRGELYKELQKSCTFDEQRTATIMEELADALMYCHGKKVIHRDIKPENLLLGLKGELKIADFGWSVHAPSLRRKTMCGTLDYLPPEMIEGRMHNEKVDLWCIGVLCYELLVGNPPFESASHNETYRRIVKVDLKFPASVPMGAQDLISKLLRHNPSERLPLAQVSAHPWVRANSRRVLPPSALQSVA

[6] = target: Myosin light chain kinase (Homo sapiens) (UniProt Q32MK0); details: Compound concentration 1000.0 nM
[7] = target: Platelet-derived growth factor receptor beta (Homo sapiens) (UniProt P09619); details: Compound concentration 1000.0 nM
Platelet-derived growth factor receptor beta (Homo sapiens), sequence (P09619 whole entry): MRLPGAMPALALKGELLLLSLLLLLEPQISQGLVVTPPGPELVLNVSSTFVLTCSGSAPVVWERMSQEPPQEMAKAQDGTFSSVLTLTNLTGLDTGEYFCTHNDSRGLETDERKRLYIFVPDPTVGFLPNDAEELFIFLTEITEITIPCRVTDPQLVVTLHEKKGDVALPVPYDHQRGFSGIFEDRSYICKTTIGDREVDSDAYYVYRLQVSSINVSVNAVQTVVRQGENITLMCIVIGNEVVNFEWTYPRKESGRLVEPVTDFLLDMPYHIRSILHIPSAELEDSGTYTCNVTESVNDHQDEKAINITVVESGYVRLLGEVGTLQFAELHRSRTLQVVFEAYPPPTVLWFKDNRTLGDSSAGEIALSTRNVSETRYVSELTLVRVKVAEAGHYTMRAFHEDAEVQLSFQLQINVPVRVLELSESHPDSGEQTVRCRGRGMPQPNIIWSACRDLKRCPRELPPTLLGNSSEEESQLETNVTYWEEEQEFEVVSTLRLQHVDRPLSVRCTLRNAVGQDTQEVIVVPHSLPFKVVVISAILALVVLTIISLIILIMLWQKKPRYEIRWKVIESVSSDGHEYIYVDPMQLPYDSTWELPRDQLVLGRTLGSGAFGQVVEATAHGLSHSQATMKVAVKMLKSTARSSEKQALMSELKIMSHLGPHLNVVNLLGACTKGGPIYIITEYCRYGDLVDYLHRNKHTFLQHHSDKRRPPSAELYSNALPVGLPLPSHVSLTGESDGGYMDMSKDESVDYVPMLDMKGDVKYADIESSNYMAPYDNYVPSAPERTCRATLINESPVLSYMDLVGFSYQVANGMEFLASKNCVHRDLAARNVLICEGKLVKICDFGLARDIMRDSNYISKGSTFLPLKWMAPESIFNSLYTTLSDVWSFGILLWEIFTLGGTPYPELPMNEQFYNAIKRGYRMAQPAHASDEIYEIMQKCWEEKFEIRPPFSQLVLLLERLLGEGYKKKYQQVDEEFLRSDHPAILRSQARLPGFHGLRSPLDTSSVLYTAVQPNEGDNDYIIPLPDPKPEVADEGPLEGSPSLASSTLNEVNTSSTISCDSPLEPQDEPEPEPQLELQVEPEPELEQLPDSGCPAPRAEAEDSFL

[8] = target: Serine/threonine-protein kinase RIO3 (Homo sapiens) (UniProt O14730); details: Compound concentration 1000.0 nM
[9] = target: Calcium/calmodulin-dependent protein kinase type 1B (Homo sapiens) (UniProt Q6P2M8); details: Compound concentration 1000.0 nM
[10] = system: Leucine-rich repeat serine/threonine-protein kinase 2 (Homo sapiens), Q5S007 [G2019S]; details: Compound concentration 1000.0 nM
[11] = target: Citron Rho-interacting kinase (Homo sapiens) (UniProt O14578); details: Compound concentration 1000.0 nM
Citron Rho-interacting kinase (Homo sapiens), sequence (O14578 whole entry): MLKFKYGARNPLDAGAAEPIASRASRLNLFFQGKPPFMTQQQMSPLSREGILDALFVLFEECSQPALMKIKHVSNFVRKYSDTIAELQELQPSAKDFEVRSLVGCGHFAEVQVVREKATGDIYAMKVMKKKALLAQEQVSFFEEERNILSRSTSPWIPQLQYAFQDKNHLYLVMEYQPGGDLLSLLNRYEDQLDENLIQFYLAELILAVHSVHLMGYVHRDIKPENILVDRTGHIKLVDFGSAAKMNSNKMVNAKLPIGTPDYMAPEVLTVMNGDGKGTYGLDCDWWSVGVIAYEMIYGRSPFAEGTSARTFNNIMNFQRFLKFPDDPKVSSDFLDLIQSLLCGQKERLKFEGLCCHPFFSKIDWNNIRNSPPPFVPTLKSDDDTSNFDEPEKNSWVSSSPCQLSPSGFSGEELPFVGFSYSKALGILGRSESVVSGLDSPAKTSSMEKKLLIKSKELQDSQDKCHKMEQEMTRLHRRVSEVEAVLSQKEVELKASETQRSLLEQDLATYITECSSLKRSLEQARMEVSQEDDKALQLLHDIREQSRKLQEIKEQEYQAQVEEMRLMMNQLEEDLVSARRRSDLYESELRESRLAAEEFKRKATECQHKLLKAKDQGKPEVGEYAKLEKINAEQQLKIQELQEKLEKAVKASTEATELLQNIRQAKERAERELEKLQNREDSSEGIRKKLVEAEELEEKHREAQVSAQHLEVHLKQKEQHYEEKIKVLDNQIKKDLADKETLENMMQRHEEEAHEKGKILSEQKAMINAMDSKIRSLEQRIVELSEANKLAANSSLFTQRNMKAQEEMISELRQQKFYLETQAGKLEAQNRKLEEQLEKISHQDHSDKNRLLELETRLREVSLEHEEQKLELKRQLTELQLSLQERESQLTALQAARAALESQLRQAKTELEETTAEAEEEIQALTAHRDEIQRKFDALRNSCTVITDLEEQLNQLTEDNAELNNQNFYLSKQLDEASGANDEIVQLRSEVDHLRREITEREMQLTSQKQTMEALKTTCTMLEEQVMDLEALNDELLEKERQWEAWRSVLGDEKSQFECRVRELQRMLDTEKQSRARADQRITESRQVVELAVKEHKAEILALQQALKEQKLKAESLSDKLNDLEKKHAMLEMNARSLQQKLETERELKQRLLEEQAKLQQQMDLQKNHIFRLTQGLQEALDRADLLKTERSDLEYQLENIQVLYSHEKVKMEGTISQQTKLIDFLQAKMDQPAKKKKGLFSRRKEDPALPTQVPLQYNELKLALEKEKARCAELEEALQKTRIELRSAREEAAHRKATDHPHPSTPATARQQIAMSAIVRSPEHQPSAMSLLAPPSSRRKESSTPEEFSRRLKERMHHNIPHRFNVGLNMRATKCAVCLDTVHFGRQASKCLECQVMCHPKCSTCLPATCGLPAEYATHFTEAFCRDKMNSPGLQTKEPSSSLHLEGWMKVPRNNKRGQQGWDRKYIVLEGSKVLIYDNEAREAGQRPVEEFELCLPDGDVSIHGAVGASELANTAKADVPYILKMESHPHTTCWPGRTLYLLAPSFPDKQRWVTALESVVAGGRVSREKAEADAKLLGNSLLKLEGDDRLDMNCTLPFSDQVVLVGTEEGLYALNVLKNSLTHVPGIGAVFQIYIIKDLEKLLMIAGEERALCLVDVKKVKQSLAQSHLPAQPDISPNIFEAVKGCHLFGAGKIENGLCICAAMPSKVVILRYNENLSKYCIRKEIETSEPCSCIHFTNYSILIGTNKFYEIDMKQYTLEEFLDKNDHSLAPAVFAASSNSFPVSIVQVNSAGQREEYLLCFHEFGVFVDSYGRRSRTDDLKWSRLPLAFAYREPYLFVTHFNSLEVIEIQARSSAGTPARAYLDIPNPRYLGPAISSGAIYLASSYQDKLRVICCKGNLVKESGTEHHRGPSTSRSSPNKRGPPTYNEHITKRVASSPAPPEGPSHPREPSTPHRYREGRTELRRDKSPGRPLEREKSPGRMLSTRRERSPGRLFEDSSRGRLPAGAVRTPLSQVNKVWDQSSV

[12] = target: Serine/threonine-protein kinase DCLK3 (Homo sapiens) (UniProt Q9C098); details: Compound concentration 1000.0 nM
[13] = system: Mast/stem cell growth factor receptor Kit (Homo sapiens), P10721 [D816H]; details: Compound concentration 1000.0 nM
[14] = target: Tyrosine-protein kinase JAK1 (Homo sapiens) (UniProt P23458); details: Compound concentration 1000.0 nM
[15] = target: Serine/threonine-protein kinase 32C (Homo sapiens) (UniProt Q86UX6); details: Compound concentration 1000.0 nM
[16] = target: Serine/threonine-protein kinase ULK3 (Homo sapiens) (UniProt Q6PHR2); details: Compound concentration 1000.0 nM
Serine/threonine-protein kinase ULK3 (Homo sapiens), sequence (Q6PHR2 whole entry, canonical isoform): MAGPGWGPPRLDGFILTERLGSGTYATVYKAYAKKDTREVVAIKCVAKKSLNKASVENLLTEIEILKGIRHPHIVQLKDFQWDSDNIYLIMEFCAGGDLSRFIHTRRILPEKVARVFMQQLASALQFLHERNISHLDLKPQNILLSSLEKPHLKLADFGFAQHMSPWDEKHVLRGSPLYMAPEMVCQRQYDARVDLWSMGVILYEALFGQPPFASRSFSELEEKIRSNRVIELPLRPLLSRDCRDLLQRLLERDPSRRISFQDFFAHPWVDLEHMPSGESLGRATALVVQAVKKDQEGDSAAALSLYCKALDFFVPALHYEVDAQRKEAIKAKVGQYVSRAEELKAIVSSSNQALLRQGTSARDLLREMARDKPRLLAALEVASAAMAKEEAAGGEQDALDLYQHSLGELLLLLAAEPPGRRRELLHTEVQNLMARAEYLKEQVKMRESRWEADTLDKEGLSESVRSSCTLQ

[17] = system: Phosphatidylinositol 4,5-bisphosphate 3-kinase catalytic subunit alpha isoform (Homo sapiens), P42336 [E545A]; details: Compound concentration 1000.0 nM
[18] = target: Testis-specific serine/threonine-protein kinase 1 (Homo sapiens) (UniProt Q9BXA7); details: Compound concentration 1000.0 nM
[19] = target: Serine/threonine-protein kinase Nek4 (Homo sapiens) (UniProt P51957); details: Compound concentration 1000.0 nM
[20] = target: Myotonin-protein kinase (Homo sapiens) (UniProt Q09013); details: Compound concentration 1000.0 nM
[21] = target: LIM domain kinase 1 (Homo sapiens) (UniProt P53667); details: Compound concentration 1000.0 nM
[22] = system: Tyrosine-protein kinase ABL1 (Homo sapiens), P00519 [M351T]; details: Compound concentration 1000.0 nM
[23] = target: Casein kinase I isoform delta (Homo sapiens) (UniProt P48730); details: Compound concentration 1000.0 nM
[24] = target: Ephrin type-A receptor 5 (Homo sapiens) (UniProt P54756); details: Compound concentration 1000.0 nM
[25] = target: Bone morphogenetic protein receptor type-1A (Homo sapiens) (UniProt P36894); details: Compound concentration 1000.0 nM
[26] = system: Tyrosine-protein kinase ABL1 (Homo sapiens), P00519 [F317L]; details: Compound concentration 1000.0 nM
[27] = target: Cyclin-dependent kinase 11A (Homo sapiens) (UniProt Q9UQ88); details: Compound concentration 1000.0 nM
[28] = target: Mitogen-activated protein kinase kinase kinase 3 (Homo sapiens) (UniProt Q99759); details: Compound concentration 1000.0 nM
[29] = target: Cyclin-dependent kinase-like 5 (Homo sapiens) (UniProt O76039); details: Compound concentration 1000.0 nM
[30] = target: Vascular endothelial growth factor receptor 3 (Homo sapiens) (UniProt P35916); details: Compound concentration 1000.0 nM
[31] = target: Sodium-dependent noradrenaline transporter (Homo sapiens) (UniProt P23975); details: Compound concentration 10.0 uM
[32] = target: Tyrosine-protein kinase ABL2 (Homo sapiens) (UniProt P42684); details: Compound concentration 1000.0 nM
Tyrosine-protein kinase ABL2 (Homo sapiens), sequence (P42684 whole entry): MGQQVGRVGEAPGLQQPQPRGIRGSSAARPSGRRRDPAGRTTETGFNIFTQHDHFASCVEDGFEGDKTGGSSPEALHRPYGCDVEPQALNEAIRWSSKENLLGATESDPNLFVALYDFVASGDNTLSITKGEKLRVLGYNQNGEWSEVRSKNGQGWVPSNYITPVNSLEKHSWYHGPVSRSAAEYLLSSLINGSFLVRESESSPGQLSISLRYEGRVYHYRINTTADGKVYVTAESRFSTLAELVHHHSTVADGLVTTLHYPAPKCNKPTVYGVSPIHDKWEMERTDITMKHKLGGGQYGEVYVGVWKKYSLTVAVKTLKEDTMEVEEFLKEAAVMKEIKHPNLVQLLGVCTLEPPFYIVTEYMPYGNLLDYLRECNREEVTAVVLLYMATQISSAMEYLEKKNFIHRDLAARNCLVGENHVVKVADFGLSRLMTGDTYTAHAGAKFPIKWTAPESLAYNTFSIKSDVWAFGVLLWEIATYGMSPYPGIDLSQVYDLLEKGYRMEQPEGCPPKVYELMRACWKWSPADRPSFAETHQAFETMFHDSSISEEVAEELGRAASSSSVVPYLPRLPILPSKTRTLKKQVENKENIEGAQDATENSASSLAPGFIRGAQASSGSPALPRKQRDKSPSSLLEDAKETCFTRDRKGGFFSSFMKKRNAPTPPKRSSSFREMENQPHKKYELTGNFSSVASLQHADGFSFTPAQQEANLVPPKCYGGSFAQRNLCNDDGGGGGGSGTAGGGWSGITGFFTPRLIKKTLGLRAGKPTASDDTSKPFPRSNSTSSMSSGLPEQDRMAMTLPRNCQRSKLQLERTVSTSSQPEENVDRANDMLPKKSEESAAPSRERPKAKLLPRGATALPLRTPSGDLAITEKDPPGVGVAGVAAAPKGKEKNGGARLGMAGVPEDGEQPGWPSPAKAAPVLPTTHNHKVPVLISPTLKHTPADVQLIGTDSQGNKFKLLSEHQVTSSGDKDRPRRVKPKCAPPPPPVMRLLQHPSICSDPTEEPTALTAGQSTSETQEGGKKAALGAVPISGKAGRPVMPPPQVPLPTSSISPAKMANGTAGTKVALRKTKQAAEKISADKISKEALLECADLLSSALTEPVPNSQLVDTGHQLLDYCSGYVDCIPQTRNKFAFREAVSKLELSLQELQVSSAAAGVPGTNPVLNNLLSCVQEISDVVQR

[33] = target: Receptor-type tyrosine-protein kinase FLT3 (Homo sapiens) (UniProt P36888); details: Compound concentration 1000.0 nM
[34] = target: Macrophage colony-stimulating factor 1 receptor (Homo sapiens) (UniProt P07333); details: Compound concentration 1000.0 nM
[35] = target: Proto-oncogene tyrosine-protein kinase Src (Homo sapiens) (UniProt P12931); details: Compound concentration 1000.0 nM
[36] = target: Tyrosine-protein kinase Fes/Fps (Homo sapiens) (UniProt P07332); details: Compound concentration 1000.0 nM
[37] = target: Mast/stem cell growth factor receptor Kit (Homo sapiens) (UniProt P10721); details: Compound concentration 1000.0 nM
[38] = target: Cyclin-dependent kinase 2 (Homo sapiens) (UniProt P24941); details: Compound concentration 1000.0 nM
[39] = system: Receptor-type tyrosine-protein kinase FLT3 (Homo sapiens), P36888 [D835V]; details: Compound concentration 1000.0 nM
[40] = target: Peripheral plasma membrane protein CASK (Homo sapiens) (UniProt O14936); details: Compound concentration 1000.0 nM
[41] = target: Discoidin domain-containing receptor 2 (Homo sapiens) (UniProt Q16832); details: Compound concentration 1000.0 nM
[42] = target: Serine/threonine-protein kinase 35 (Homo sapiens) (UniProt Q8TDR2); details: Compound concentration 1000.0 nM
[43] = target: RAF proto-oncogene serine/threonine-protein kinase (Homo sapiens) (UniProt P04049); details: Compound concentration 1000.0 nM
[44] = target: Serine/threonine-protein kinase PLK4 (Homo sapiens) (UniProt O00444); details: Compound concentration 1000.0 nM
[45] = target: Cyclin-dependent kinase 13 (Homo sapiens) (UniProt Q14004); details: Compound concentration 1000.0 nM
[46] = target: Fibroblast growth factor receptor 1 (Homo sapiens) (UniProt P11362); details: Compound concentration 1000.0 nM

Cc1cc(-n2nc(Cc3cc(F)cc(C(F)(F)F)c3)nc2C)ccc1C(N)=O [TP-024]
inactive: residual activity [1] 95% | residual activity [2] 96% | residual activity [3] 100% | inhibition [4] 14.3% | residual activity [5] 87% | residual activity [6] 92% | residual activity [7] 98% | residual activity [8] 100% | residual activity [9] 100% | residual activity [10] 100% | residual activity [11] 95% | residual activity [12] 94% | residual activity [13] 100% | residual activity [14] 100% | residual activity [15] 100% | residual activity [16] 100% | residual activity [17] 100% | residual activity [18] 90% | residual activity [19] 100% | residual activity [20] 100% | residual activity [21] 100% | residual activity [22] 100% | residual activity [23] 100% | residual activity [24] 100% | residual activity [25] 85% | residual activity [26] 100% | residual activity [27] 100% | residual activity [28] 94% | residual activity [29] 100% | residual activity [30] 97% | inhibition [31] -6.7% | residual activity [32] 100% | residual activity [33] 100% | residual activity [34] 100% | residual activity [35] 95% | residual activity [36] 100% | residual activity [37] 100% | residual activity [38] 100% | residual activity [39] 100% | residual activity [40] 100% | residual activity [41] 100% | residual activity [42] 100% | residual activity [43] 87% | residual activity [44] 84% | residual activity [45] 100% | residual activity [46] 100%

Cc1nc(Cc2cccc(C(F)(F)F)c2)sc1-c1ccc(C(N)=O)nc1 [TP-024n]
inactive: residual activity [1] 82% | residual activity [2] 100% | residual activity [3] 100% | inhibition [4] 13.8% | residual activity [5] 100% | residual activity [6] 81% | residual activity [7] 92% | residual activity [8] 100% | residual activity [9] 100% | residual activity [10] 82% | residual activity [11] 65% | residual activity [12] 100% | residual activity [13] 100% | residual activity [14] 86% | residual activity [15] 87% | residual activity [16] 100% | residual activity [17] 100% | residual activity [18] 54% | residual activity [19] 100% | residual activity [20] 100% | residual activity [21] 100% | residual activity [22] 100% | residual activity [23] 75% | residual activity [24] 100% | residual activity [25] 76% | residual activity [26] 89% | residual activity [27] 92% | residual activity [28] 97% | residual activity [29] 100% | residual activity [30] 100% | inhibition [31] -8.77% | residual activity [32] 100% | residual activity [33] 93% | residual activity [34] 85% | residual activity [35] 80% | residual activity [36] 99% | residual activity [37] 100% | residual activity [38] 100% | residual activity [39] 100% | residual activity [40] 85% | residual activity [41] 100% | residual activity [42] 100% | residual activity [43] 70% | residual activity [44] 90% | residual activity [45] 100% | residual activity [46] 83%
